In patent US20250213707A1, “COMPOUND FOR INCREASING EFFICACY OF ONCOLYTIC VIRUSES” (ABLEVIA BIOTECH GMBH, priority 2022, published 2025):

Tested on: polyclonal antibody ab6982
Experiment: Epitope mapping of polyclonal antibody ab6982 against cyclic peptides of Ad5 fiber and hexon (peptide array)
Type: binding, rabbits
Conditions: cyclic peptides of hexon protein (clusters 8-16)
From the text: Polyclonal antibody ab6982 (Abcam) was generated by immunizing rabbits with purified AdV. It reacts with all capsid proteins of Ad5 including hexon, fiber and penton. It was shown that the antibody neutralizes Ad5 infection in a bioassay at 1000 adenovirus 5 particles/ml, a 50% inactivation of the adenovirus can be achieved at a 1/25,000 dilution of the antibody. In order to identify epitopic regions that could contain peptides for ab6982 paratope binding, the antibody was mapped against the sequences of fiber (NCBI Reference Sequence: AP 000226.1) and hexon protein (GenBank: BAG48782.1). […] The binding signal of this antibody to the array yielded several peptides that were aligned and clustered against the sequence of the protein. The peptide clusters were named cluster1-7 (fiber protein) and clusters8-16 (hexon protein) according to their ranked order of cyclic peptide hits (i.e. cluster contains the strongest binders, cluster2 the second strongest etc.). Below are the aligments of the corresponding peptides that bind to polyclonal antibody ab6982.

| Substance | antibody binding signal ranking from the microarray experiment |
| --- | --- |
| 212 (TALEINLEEEDDD) [compound 212] | 05 |
| 213 (EINLEEE) [compound 213] | 06 |
| 214 (ALEINLEEED) [compound 214] | 07 |
| 215 (LEINLEEEDD) [compound 215] | 08 |
| 216 (TALEINLEEE) [compound 216] | 09 |
| 217 (DEAATALEINLEE) [compound 217] | 11 |
| 218 (LEINLEEEDDDNE) [compound 218] | 13 |
| 219 (AATALEINLEEED) [compound 219] | 14 |
| 220 (EINLEEEDDD) [compound 220] | 15 |
| 221 (ATALEINLEE) [compound 221] | 19 |
| 222 (INLEEEDDDN) [compound 222] | 23 |
| 223 (NLEEEDDDNE) [compound 223] | 27 |
| 224 (DEVDEQA) [compound 224] | 10 |
| 225 (EDDDNEDEVDEQA) [compound 225] | 12 |
| 226 (DDNEDEVDEQAEQ) [compound 226] | 16 |
| 227 (EVDEQAE) [compound 227] | 17 |
| 228 (DNEDEVDEQA) [compound 228] | 18 |
| 229 (VDEQAEQ) [compound 229] | 20 |
| 230 (EDEVDEQAEQQKT) [compound 230] | 21 |
| 231 (EDEVDEQAEQ) [compound 231] | 22 |
| 232 (DEVDEQAEQQKTH) [compound 232] | 24 |
| 233 (NEDEVDEQAEQQK) [compound 233] | 25 |

| Substance | antibody binding signal ranking from the microarray experiment |
| --- | --- |
| 234 (DEVDEQAEQQ) [compound 234] | 26 |
| 235 (EINLEEEDDDNED) [compound 235] | 028 |
| 236 (NLEEEDDDNEDEV) [compound 236] | 029 |
| 237 (INLEEED) [compound 237] | 032 |
| 238 (LEEEDDDNED) [compound 238] | 034 |
| 239 (INLEEEDDDNEDE) [compound 239] | 035 |
| 240 (DDDNEDEVDEQAE) [compound 240] | 037 |
| 241 (LEEEDDDNEDEVD) [compound 241] | 053 |
| 242 (DDNEDEVDEQ) [compound 242] | 057 |
| 243 (EDDDNED) [compound 243] | 063 |
| 244 (NLEEEDD) [compound 244] | 065 |
| 245 (DDNEDEV) [compound 245] | 078 |
| 246 (DDDNEDEVDE) [compound 246] | 087 |
| 247 (DDDNEDE) [compound 247] | 096 |
| 248 (EEEDDDNEDE) [compound 248] | 097 |
| 249 (EEDDDNE) [compound 249] | 108 |
| 250 (EDDDNEDEVD) [compound 250] | 121 |
| 251 (EDEVDEQ) [compound 251] | 126 |
| 252 (EEDDDNEDEVDEQ) [compound 252] | 148 |
| 253 (EEDDDNEDEV) [compound 253] | 185 |
| 254 (EEEDDDNEDEVDE) [compound 254] | 188 |
| 255 (EVDEQAEQQK) [compound 255] | 030 |

| Substance | antibody binding signal ranking from the microarray experiment |
| --- | --- |
| 256 (DNEDEVDEQAEQQ) [compound 256] | 031 |
| 257 (VDEQAEQQKT) [compound 257] | 036 |
| 258 (EVDEQAEQQKTHV) [compound 258] | 038 |
| 259 (VDEQAEQQKTHVF) [compound 259] | 041 |
| 260 (ALEINLE) [compound 260] | 033 |
| 261 (WDEAATALEINLE) [compound 261] | 042 |
| 262 (AATALEINLE) [compound 262] | 043 |
| 263 (EWDEAATALEINL) [compound 263] | 112 |
| 264 (EAATALEINL) [compound 264] | 124 |
| 265 (LYSEDVDIET) [compound 265] | 039 |
| 266 (LYSEDVDIETPDT) [compound 266] | 040 |
| 267 (KVVLYSEDVDIET) [compound 267] | 044 |
| 268 (IETPDTH) [compound 268] | 045 |
| 269 (VDIETPDTHI) [compound 269] | 046 |
| 270 (VLYSEDVDIE) [compound 270] | 047 |
| 271 (DVDIETPDTHISY) [compound 271] | 048 |
| 272 (VVLYSEDVDIETP) [compound 272] | 049 |
| 273 (SEDVDIETPDTHI) [compound 273] | 050 |
| 274 (ETPDTHI) [compound 274] | 051 |
| 275 (VLYSEDVDIETPD) [compound 275] | 052 |
| 276 (DVDIETPDTH) [compound 276] | 054 |
| 277 (DIETPDTHIS) [compound 277] | 055 |

| Substance | antibody binding signal ranking from the microarray experiment |
| --- | --- |
| 278 (EDVDIETPDTHIS) [compound 278] | 056 |
| 279 (IETPDTHISY) [compound 279] | 058 |
| 280 (YSEDVDIETPDTH) [compound 280] | 059 |
| 281 (VDIETPDTHISYM) [compound 281] | 060 |
| 282 (PKVVLYSEDVDIE) [compound 282] | 061 |
| 283 (DIETPDT) [compound 283] | 062 |
| 284 (DIETPDTHISYMP) [compound 284] | 064 |
| 285 (EDVDIETPDT) [compound 285] | 070 |
| 286 (ETPDTHISYM) [compound 286] | 071 |
| 287 (IETPDTHISYMP) [compound 287] | 159 |
| 288 (DRMYSFFRNF) [compound 288] | 072 |
| 289 (DRMYSFF) [compound 289] | 086 |
| 290 (YSFFRNF) [compound 290] | 104 |
| 291 (IPESYKDRMYSFF) [compound 291] | 107 |
| 292 (SYKDRMYSFF) [compound 292] | 120 |
| 293 (ESYKDRMYSF) [compound 293] | 127 |
| 294 (KDRMYSF) [compound 294] | 143 |
| 295 (YIPESYKDRMYSF) [compound 295] | 152 |
| 296 (PESYKDRMYSFFR) [compound 296] | 153 |
| 297 (YKDRMYSFFR) [compound 297] | 160 |
